Laboratory results published in patent publication US20200278355A1, “CONJUGATED PROTEINS AND USES THEREOF” (THE SCRIPPS RESEARCH INSTITUTE, priority 2017, published 2020).
“Also recorded” adds a separate entry of the source.

Biological target: T1, NR0B1-SNW1 interaction (Homo sapiens, UniProt P51843)
T1 construct: endogenous in cells; host or cells: NR0B1: H2122 cell lysate
T1 sequence (P51843 1-470): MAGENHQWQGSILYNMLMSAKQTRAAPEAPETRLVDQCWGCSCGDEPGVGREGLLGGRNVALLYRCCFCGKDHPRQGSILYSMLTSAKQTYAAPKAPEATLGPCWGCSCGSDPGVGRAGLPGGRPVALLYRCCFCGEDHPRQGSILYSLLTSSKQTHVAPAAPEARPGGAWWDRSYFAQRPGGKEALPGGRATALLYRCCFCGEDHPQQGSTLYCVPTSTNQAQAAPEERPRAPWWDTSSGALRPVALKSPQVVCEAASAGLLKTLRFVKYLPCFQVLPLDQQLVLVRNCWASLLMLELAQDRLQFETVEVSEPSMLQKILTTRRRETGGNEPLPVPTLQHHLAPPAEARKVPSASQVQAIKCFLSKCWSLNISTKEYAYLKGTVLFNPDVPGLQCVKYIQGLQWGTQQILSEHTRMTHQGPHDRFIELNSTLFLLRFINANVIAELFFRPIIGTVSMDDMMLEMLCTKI
Assay: In vitro binding assay: NR0B1 in H2122 lysate binding to immobilized FLAG-SNW1
Conditions: for IC50: in vitro, read-out: IC50, inhibition of the NR0B1-SNW1 interaction
Description: H2122 clarified cell lysate (100 μL, 1 mg ml^−1) in IP-buffer were incubated with the indicated compounds or vehicle (DMSO) for 3 hours at 4° C. with rotation. Following treatment, 3 volumes of IP-buffer was added along with immobilized FLAG-SNW1 beads (30 μL, 50:50 slurry), which was incubated for an additional hour at 4° C. Beads were washed three times with IP-buffer supplemented with 500 mM NaCl. Immunoprecipitated proteins were resolved by SDS-PAGE and analyzed by immunoblotting. NR0B1 and HA-NR0B1 levels were determined by using the NR0B1 antibody (Cell Signaling). IC50 curves were determined using Prism 6 (Graphpad) software, with maximum and minimum values set at 100% NR0B1 bound 0% NR0B1 bound respectively.
Statistical analysis was preformed using GraphPad Prism version 6 or 7 for Mac, GraphPad Software, La Jolla Calif. USA, or the R statistical programming language. Inhibition curves of the NR0B1-SNW1 interactions by NR0B1-ligand are fit as using log(inhibitor) vs % normalized remaining of NR0B1-SNW1 interaction and data points are plotted as the mean±SD (n=2-5 per group). NR0B1 half-life was calculated from a one-phase exponential decay curve plotted as mean±SD (4-10 per group). Statistical significance was defined as p<0.05 and determined by 2-tailed Student's t-test (FIG. 1I, FIG. 3B), two-way Anova with Bonferroni post-test analysis (FIG. 1J) or correlation analysis using Pearson product-moment correlation coefficient (FIG. 4B, FIG. 10G).
Next, a chemical probe targeting C274 of NR0B1 was developed. Using an in vitro binding assay (FIG. 5B), an ˜80-member library of cysteine-reactive electrophilic compounds was screened at 50 μM for blockade of interactions between endogenous NR0B1 and recombinant FLAG-SNW1 in cell lysates (FIG. 5C). Among the hits (>50% blockade) were a series of N-disubstituted chloroacetamides (CAs), including BPK-26 (FIGS. 5D, 5E), that were selected for further investigation. […] Both BPK-26 and BPK-29 inhibited the NR0B1-SNW1 interaction with IC50 values between 10-20 μM in vitro (FIG. 11C).

Row | inhibition of the NR0B1-SNW1 interaction (tested concentration range of 1-50 μM) | IC50 [µM] | blockade of interactions between endogenous NR0B1 and recombinant FLAG-SNW1 (screened at 50 μM in cell lysates) [%] | SMILES | relative potency for inhibition of FLAG-SNW1 binding to NR0B1 (structure-activity relationship) (compounds at 50 μM)
1 | did not inhibit | – | – | O=C(c1ccc(N2CCOCC2)cc1)N1CCC(CN(C(=O)CCl)c2cncnc2)CC1 [BPK-9, 2-chloro-N-((1-(4-morpholinobenzoyl)piperidin-4-yl)methyl)-N-(pyrimidin-5-yl)acetamide] | –
2 | – | 10 to 20 | > 50 | O=C(CCl)N(Cc1cccc(Cl)c1F)c1ccc(Cl)nc1 [BPK-26, 2-chloro-N-(3-chloro-2-fluorobenzyl)-N-(6-chloropyridin-3-yl)acetamide] | –
3 | – | 10 to 20 | – | O=C(c1ccc(N2CCOCC2)cc1)N1CCCC(N(Cc2ccccc2)C(=O)CCl)CC1 (centres unmarked) [BPK-29, N-benzyl-2-chloro-N-(1-(4-morpholinobenzoyl)azepan-4-yl)acetamide] | the most potent analogue; also recorded: recovered potency
